Reference: patent publication US20040121316A1 (priority 2002, published 2004)
Peptide text beside a SMILES is read from it. * marks the point of attachment. MeOSuc = COC(=O)CCC(=O)*; CH2Cl = ClC*

Tests used:
MT-2 cells [1] = tested on: MT-2 cells
WT HIV-1 = assay: microbe, parasite or virus in culture; assay type: cell-based; settings: XTT-based cytopathic assay; read-out: EC50 WT HIV-1
[2] = tested on: recombinant HIV-1 strains with resistance mutations in the protease gene; assay: Cross-Resistance Profile Assay, whole panel; assay type: cell-based; settings: resistance = 5-fold and higher change in EC50 of the mutant relative to wild-type; 11 mutant viruses
[3] = tested on: MT-2 cells, stimulated and quiescent PBMC
MT-2 cells [4] = tested on: MT-2 cells; remark: listed apart in the source
[5] = tested on: PBMC in human whole blood
[6] = not given; remark: listed apart in the source
[7] = not given; remark: listed apart in the source
[8] = biological target: porcine liver carboxylesterase (PLCE) (Sus scrofa, UniProt Q29550); assay type: biochemical; settings: read-out: IC50 (μM) PLCE
Chain of porcine liver carboxylesterase (PLCE) (Q29550 whole entry): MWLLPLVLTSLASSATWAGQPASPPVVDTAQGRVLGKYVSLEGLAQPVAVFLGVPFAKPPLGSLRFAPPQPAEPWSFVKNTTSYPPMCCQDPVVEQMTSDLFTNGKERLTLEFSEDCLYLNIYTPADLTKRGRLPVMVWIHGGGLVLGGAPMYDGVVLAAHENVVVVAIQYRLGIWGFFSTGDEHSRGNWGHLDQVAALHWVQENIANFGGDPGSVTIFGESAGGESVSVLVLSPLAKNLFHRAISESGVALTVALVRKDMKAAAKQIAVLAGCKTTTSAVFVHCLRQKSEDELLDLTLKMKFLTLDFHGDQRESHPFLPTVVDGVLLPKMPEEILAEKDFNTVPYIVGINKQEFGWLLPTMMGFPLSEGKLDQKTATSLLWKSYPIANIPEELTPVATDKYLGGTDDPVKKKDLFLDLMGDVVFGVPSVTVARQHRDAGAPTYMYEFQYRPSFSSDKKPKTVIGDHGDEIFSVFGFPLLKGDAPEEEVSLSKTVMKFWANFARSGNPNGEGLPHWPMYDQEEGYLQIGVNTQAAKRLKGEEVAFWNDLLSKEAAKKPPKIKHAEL

| SMILES | intracellular metabolites formed [3] | Intracellular Acid Metabolite Concentration [5] | Intracellular Concentration, Acid Metabolite [5] | Intracellular Concentration, Prodrug [5] | Intracellular Prodrug [5] | Intracellular Prodrug and Metabolites Concentration, Total [5] | Intracellular Prodrug and Metabolites Total [5] | PBMC Extract T1/2 | PBMC Extract T1/2, min | Dog Plasma T1/2 [6] | Dog Plasma T1/2, min [6] | Human Serum T1/2 [7] | Human Serum T1/2, min [7] | also measured |
| --- | --- | --- | --- | --- | --- | --- | --- | --- | --- | --- | --- | --- | --- | --- |
| COc1ccc(S(=O)(=O)N(CC(C)C)C[C@@H](O)[C@H](Cc2ccc(P(=O)(O)O)cc2)NC(=O)O[C@H]2CO[C@H]3OCC[C@H]32)cc1 [Compound 27] | – | – | – | – | – | – | – | – | – | – | – | – | – | CC50 (MT-2 cells [1]): > 100 µM |
| CCOP(=O)(OCC)c1ccc(CC(NC(=O)OC2COC3OCCC23)C(O)CN(CC(C)C)S(=O)(=O)c2ccc(OC)cc2)cc1 (centres unmarked) [Compound 28] | – | – | – | – | – | – | – | – | – | – | – | – | – | CC50 (MT-2 cells [1]): 70 µM |
| CCCCOC(=O)C(C)NP(=O)(COc1ccc(CC(NC(=O)OC2COC3OCCC23)C(O)CN(CC(C)C)S(=O)(=O)c2ccc(OC)cc2)cc1)NC(C)C(=O)OCCCC (centres unmarked) [GS-16503] | Metabolite X and GS-8373 | 279 ± 47 µM | 279 ± 47 µM | 61 ± 40 µM | 61 ± 40 µM | 340 ± 35 µM | 340 ± 35 µM | 0.033 h | 0.033 h | 6.13 h | 6.13 h | >>400 min | >>400 min | EC50 (WT HIV-1): 0.016 µM; Total No. of Resistant Viruses [2]: 0; Metabolism (conversion to acid metabolites), dependence on concentration (MT-2 cells [4]): concentration-dependent; increase in conversion to acid metabolites at 1 μM vs. 10 μM (MT-2 cells [4]): 3 fold; Major Intracellular Metabolites [5]: X, GS-8373; Cell-Associated PI, Prodrug (quiescent PBMC): 0 pmol/mln cells; composition of metabolites in PBMC (quiescent PBMC): equimolar mixture of metabolite X and GS-8373 |
| CCOC(=O)C(C)NP(=O)(COc1ccc(CC(NC(=O)OC2COC3OCCC23)C(O)CN(CC(C)C)S(=O)(=O)c2ccc(OC)cc2)cc1)Oc1ccccc1 (centres unmarked) [GS-16571] | Metabolite X and GS-8373 | 319 ± 112 µM | 319 ± 112 µM | 137 ± 62 µM | 137 ± 62 µM | 432 ± 208 µM | 432 ± 208 µM | 0.817 h | 0.817 h | 2.1 h | 2.1 h | 110 min | 110 min | EC50 (WT HIV-1): 0.022 µM; Total No. of Resistant Viruses [2]: 0; Major Intracellular Metabolites [5]: X, GS-8373 |
| CCOC(=O)C(C)OP(=O)(COc1ccc(C[C@H](NC(=O)O[C@H]2CO[C@H]3OCC[C@H]32)[C@H](O)CN(CC(C)C)S(=O)(=O)c2ccc(OC)cc2)cc1)Oc1ccccc1 (some centres unmarked) [GS-17394] | Metabolite LX | 629 ± 303 µM | 629 ± 303 µM | 69 ± 85 µM | 69 ± 85 µM | 698 ± 301 µM | 698 ± 301 µM | 0.25 h | 0.25 h | 2.4 h | 2.4 h | 49 min | 49 min | Metabolism (conversion to acid metabolites), dependence on concentration (MT-2 cells [4]): independent; Cell-Associated PI, Prodrug (quiescent PBMC): 0 pmol/mln cells; composition of metabolites in PBMC (quiescent PBMC): only metabolite LX |
| COC(=O)CCC(=O)N[C@@H](C)C(=O)N[C@@H](C)C(=O)N1CCC[C@H]1C(=O)N[C@@H](C)C(=O)CCl [MeOSuC-Ala-Ala-Pro-Ala-CMK] (MeOSuc-AAPA-CH2Cl) | – | – | – | – | – | – | – | – | – | – | – | – | – | IC50 [8]: > 1000 µM |
| COC(=O)CCC(=O)N[C@@H](C)C(=O)N[C@@H](C)C(=O)N1CCC[C@H]1C(=O)N[C@H](C(=O)CCl)C(C)C [MeOSuc-Ala-Ala-Pro-Val-CMK] (MeOSuc-AAPV-CH2Cl) | – | – | – | – | – | – | – | – | – | – | – | – | – | IC50 [8]: > 1000 µM |
